This assay concerns MV-4-11 cells. As to the kind of experiment: Gene expression microarray analysis (Affymetrix PrimeView) and GSEA. The format is cell-based, human. Set-up: RFU PODN (11730768_x_at) / Fold change /veh PODN (11730768_x_at) / RFU LINC00158 (11744669_a_at) / Fold change /veh LINC00158 (11744669_a_at) / RFU DUSP10 (11751237_a_at) / Fold change /veh DUSP10 (11751237_a_at) / RFU ID3 (11757404_x_at) / Fold change /veh ID3 (11757404_x_at) / RFU PLEKHG5 (11737974_s_at) / Fold change /veh PLEKHG5 (11737974_s_at) / RFU LRRC4B (11730491_at) / Fold change /veh LRRC4B (11730491_at) / RFU GIMAP4 (11747438_a_at) / Fold change /veh GIMAP4 (11747438_a_at) / RFU KRT8 (11758183_x_at) / Fold change /veh KRT8 (11758183_x_at) / RFU CNN1 (11734310_a_at) / Fold change /veh CNN1 (11734310_a_at) / RFU VPS37D (11726825_at) / Fold change /veh VPS37D (11726825_at) / RFU C10orf10 (11716522_x_at) / Fold change /veh C10orf10 (11716522_x_at) / RFU KIR2DL2 /// KIR2DL4 /// KIR2DL5A /// KIR2DL5B /// KIR2DS1 /// KIR2DS2 /// KIR2DS3 /// KIR2DS4 /// KIR3DL3 /// KIR3DL3 /// KIR3DS1 (11738374_at) / Fold change /veh KIR2DL2 /// KIR2DL4 /// KIR2DL5A /// KIR2DL5B /// KIR2DS1 /// KIR2DS2 /// KIR2DS3 /// KIR2DS4 /// KIR3DL3 /// KIR3DL3 /// KIR3DS1 (11738374_at) / RFU C1QL1 (11718748_at) / Fold change /veh C1QL1 (11718748_at) / RFU TMPRSS4 (11747572_a_at) / Fold change /veh TMPRSS4 (11747572_a_at) / RFU HAMP (11756126_x_at) / Fold change /veh HAMP (11756126_x_at) / RFU RNFT2 (11725882_a_at) / Fold change /veh RNFT2 (11725882_a_at) / RFU NR4A2 (11747474_a_at) / Fold change /veh NR4A2 (11747474_a_at) / RFU ABCC12 (11746883_a_at) / Fold change /veh ABCC12 (11746883_a_at) / RFU TMEM136 (11760407_x_at) / Fold change /veh TMEM136 (11760407_x_at) / RFU CLDN22 /// WWC2 (11732394_at) / Fold change /veh CLDN22 /// WWC2 (11732394_at) / RFU HLA-DPB1 (11760878_x_at) / Fold change /veh HLA-DPB1 (11760878_x_at) / RFU SPINT1 (11716480_a_at) / Fold change /veh SPINT1 (11716480_a_at) / RFU GAP43 (11754022_s_at) / Fold change /veh GAP43 (11754022_s_at) / RFU A4GNT (11735810_at) / Fold change /veh A4GNT (11735810_at) / RFU PRB3 (11715151_x_at) / Fold change /veh PRB3 (11715151_x_at) / RFU TUBB4B (11761932_at) / Fold change /veh TUBB4B (11761932_at) / RFU CAPN14 (11732068_a_at) / Fold change /veh CAPN14 (11732068_a_at) / RFU TMCC2 (11721928_a_at) / Fold change /veh TMCC2 (11721928_a_at) / RFU IRGQ (11745062_a_at) / Fold change /veh IRGQ (11745062_a_at) / RFU FAM174B (11720279_a_at) / Fold change /veh FAM174B (11720279_a_at) / RFU TMPRSS4 (11748680_a_at) / Fold change /veh TMPRSS4 (11748680_a_at) / RFU FAM212B (11763350_a_at) / Fold change /veh FAM212B (11763350_a_at) / RFU PLEKHG5 (11743358_a_at) / Fold change /veh PLEKHG5 (11743358_a_at) / RFU ZSCAN30 (11745921_a_at) / Fold change /veh ZSCAN30 (11745921_a_at) / RFU CMKLR1 (11741424_a_at) / Fold change /veh CMKLR1 (11741424_a_at) / RFU LOC101060620 /// MAPK8IP1 (11723275_at) / Fold change /veh LOC101060620 /// MAPK8IP1 (11723275_at) / RFU SPTSSB (11747773_x_at) / Fold change /veh SPTSSB (11747773_x_at) / RFU PRSS12 (11739890_at) / Fold change /veh PRSS12 (11739890_at) / RFU BIN1 (11741810_x_at) / Fold change /veh BIN1 (11741810_x_at) / RFU WNT11 (11732464_a_at) / Fold change /veh WNT11 (11732464_a_at) / RFU C10orf10 (11716521_a_at) / Fold change /veh C10orf10 (11716521_a_at) / RFU C5orf56 (11738089_at) / Fold change /veh C5orf56 (11738089_at) / RFU CYB561 (11721691_x_at) / Fold change /veh CYB561 (11721691_x_at) / RFU ANKRD19P (11752326_a_at) / Fold change /veh ANKRD19P (11752326_a_at) / RFU OR2T12 /// OR2T33 /// OR2T8 (11738714_s_at) / Fold change /veh OR2T12 /// OR2T33 /// OR2T8 (11738714_s_at) / RFU VCAN (11748164_a_at) / Fold change /veh VCAN (11748164_a_at) / RFU JSRP1 (11732532_at) / Fold change /veh JSRP1 (11732532_at) / RFU KRTAP10-11 (11738290_x_at) / Fold change /veh KRTAP10-11 (11738290_x_at) / RFU MYO3A (11730013_a_at) / Fold change /veh MYO3A (11730013_a_at) / RFU EBF3 (11725865_a_at) / Fold change /veh EBF3 (11725865_a_at) / RFU CAMK2N1 (11719241_x_at) / Fold change /veh CAMK2N1 (11719241_x_at) / RFU C5orf56 (11738088_a_at) / Fold change /veh C5orf56 (11738088_a_at) / RFU OLFML3 (11715873_a_at) / Fold change /veh OLFML3 (11715873_a_at) / RFU LOC100653217 /// NTM (11731650_a_at) / Fold change /veh LOC100653217 /// NTM (11731650_a_at) / RFU MAPK11 (11762145_a_at) / Fold change /veh MAPK11 (11762145_a_at) / RFU FIZ1 (11724087_x_at) / Fold change /veh FIZ1 (11724087_x_at) / RFU OASL (11726364_x_at) / Fold change /veh OASL (11726364_x_at) / RFU SOX15 (11748057_x_at) / Fold change /veh SOX15 (11748057_x_at) / RFU CD79A (11719716_a_at) / Fold change /veh CD79A (11719716_a_at) / RFU HIST1H1D (11736915_at) / Fold change /veh HIST1H1D (11736915_at) / RFU CASKIN2 (11723855_a_at) / Fold change /veh CASKIN2 (11723855_a_at) / RFU LOC730098 (11760151_x_at) / Fold change /veh LOC730098 (11760151_x_at) / RFU OR4N2 (11742367_at) / Fold change /veh OR4N2 (11742367_at) / RFU PRRT2 (11749266_a_at) / Fold change /veh PRRT2 (11749266_a_at) / RFU SNX32 (11753110_a_at) / Fold change /veh SNX32 (11753110_a_at) / RFU CDHR5 (11726645_a_at) / Fold change /veh CDHR5 (11726645_a_at) / RFU RCAN1 (11760418_a_at) / Fold change /veh RCAN1 (11760418_a_at) / RFU FAM167A (11723789_a_at) / Fold change /veh FAM167A (11723789_a_at) / RFU FAM26E (11764081_at) / Fold change /veh FAM26E (11764081_at) / RFU ISYNA1 (11749810_s_at) / Fold change /veh ISYNA1 (11749810_s_at) / RFU ACY1 (11761880_at) / Fold change /veh ACY1 (11761880_at) / RFU 11764098_at / Fold change /veh 11764098_at / RFU SAMD14 (11745864_x_at) / Fold change /veh SAMD14 (11745864_x_at) / RFU NPB (11741838_a_at) / Fold change /veh NPB (11741838_a_at) / RFU TMPRSS6 (11731388_a_at) / Fold change /veh TMPRSS6 (11731388_a_at) / RFU KRTAP10-2 (11738614_at) / Fold change /veh KRTAP10-2 (11738614_at) / RFU ARHGAP8 /// PRR5-ARHGAP8 (11727945_x_at) / Fold change /veh ARHGAP8 /// PRR5-ARHGAP8 (11727945_x_at) / RFU KRTAP5-7 /// NADSYN1 (11734609_at) / Fold change /veh KRTAP5-7 /// NADSYN1 (11734609_at) / RFU RASL12 (11751679_a_at) / Fold change /veh RASL12 (11751679_a_at) / RFU CDKN2B (11736163_a_at) / Fold change /veh CDKN2B (11736163_a_at) / RFU PRF1 (11729649_at) / Fold change /veh PRF1 (11729649_at) / RFU, ZNF638 /// ZNF638-IT1 / Fold change vs veh, ZNF638 /// ZNF638-IT1 / RFU, PANK3 / Fold change vs veh, PANK3 / RFU, SH3YL1 / Fold change vs veh, SH3YL1 / RFU, ZEB2 / Fold change vs veh, ZEB2 / RFU, NRIP1 / Fold change vs veh, NRIP1 / RFU, PTTG1IP / Fold change vs veh, PTTG1IP / RFU, CAPN2 / Fold change vs veh, CAPN2 / RFU, MED14 / Fold change vs veh, MED14 / RFU, SNORA58 / Fold change vs veh, SNORA58 / RFU, C1orf63 / Fold change vs veh, C1orf63 / RFU, LRRFIP1 / Fold change vs veh, LRRFIP1 / RFU, NDUFAF7 / Fold change vs veh, NDUFAF7 / RFU, SLC12A2 / Fold change vs veh, SLC12A2 / RFU, IBTK / Fold change vs veh, IBTK / RFU, ESF1 / Fold change vs veh, ESF1 / Fold change vs veh, TMEM50B / RFU, TAOK1 / Fold change vs veh, TAOK1 / RFU, ACBD3 / Fold change vs veh, ACBD3 / RFU, TMA16 / Fold change vs veh, TMA16 / RFU, RWDD3 / Fold change vs veh, RWDD3 / RFU, BCAT1 / Fold change vs veh, BCAT1 / RFU, EDEM3 / Fold change vs veh, EDEM3 / RFU, TMEM33 / Fold change vs veh, TMEM33 / RFU, WDR75 / Fold change vs veh, WDR75 / RFU, AHCTF1 / Fold change vs veh, AHCTF1 / RFU, TFRC / Fold change vs veh, TFRC / RFU, ZDHHC17 / Fold change vs veh, ZDHHC17 / RFU, NOM1 / Fold change vs veh, NOM1 / RFU, ARL8B / Fold change vs veh, ARL8B / RFU, ZBTB11 / Fold change vs veh, ZBTB11 / RFU, TAMM41 / Fold change vs veh, TAMM41 / RFU, KIAA1704 /// LOC100996395 / Fold change vs veh, KIAA1704 /// LOC100996395 / RFU, ING1 / Fold change vs veh, ING1 / RFU, TRMT61B / Fold change vs veh, TRMT61B / RFU, FUBP3 / Fold change vs veh, FUBP3 / RFU, TP53 / Fold change vs veh, TP53 / RFU, TNKS2 / Fold change vs veh, TNKS2 / RFU, ZFP14 / Fold change vs veh, ZFP14 / RFU, ACTR2 / Fold change vs veh, ACTR2 / RFU, PPP3R1 / Fold change vs veh, PPP3R1 / RFU, PIK3R1 / Fold change vs veh, PIK3R1 / RFU, HNRNPA1 / Fold change vs veh, HNRNPA1 / RFU, RNF170 / Fold change vs veh, RNF170 / RFU, ZNF28 / Fold change vs veh, ZNF28 / RFU, RNGTT / Fold change vs veh, RNGTT / RFU, OGT / Fold change vs veh, OGT / RFU, BRD1 / Fold change vs veh, BRD1 / RFU, MARS / Fold change vs veh, MARS / RFU, ZNF655 / Fold change vs veh, ZNF655 / RFU, FAHD1 / Fold change vs veh, FAHD1 / RFU, BDP1 / Fold change vs veh, BDP1 / RFU, LRRCC1 / Fold change vs veh, LRRCC1 / RFU, ARID1A / Fold change vs veh, ARID1A / RFU, ZNF146 / Fold change vs veh, ZNF146 / RFU, ZNF330 / Fold change vs veh, ZNF330 / RFU, GPN3 / Fold change vs veh, GPN3 / RFU, C9orf123 / Fold change vs veh, C9orf123 / RFU, N4BP2L2 / Fold change vs veh, N4BP2L2 / RFU, ARFIP1 / Fold change vs veh, ARFIP1 / RFU, FAM179B / Fold change vs veh, FAM179B / RFU, BCL10 / Fold change vs veh, BCL10 / RFU, UHRF1BP1L / Fold change vs veh, UHRF1BP1L / RFU, BET1 / Fold change vs veh, BET1 / RFU, CNOT2 / Fold change vs veh, CNOT2 / RFU, ZNF268 / Fold change vs veh, ZNF268 / Fold change vs veh, ZNF507 / RFU, DGCR2 / Fold change vs veh, DGCR2 / RFU, WDSUB1 / Fold change vs veh, WDSUB1 / Fold change vs veh, HSP90B1 /// MIR3652 / RFU, ADSS / Fold change vs veh, ADSS / RFU, GK / Fold change vs veh, GK / RFU, ZNF148 / Fold change vs veh, ZNF148 / RFU, TAF9 / Fold change vs veh, TAF9 / RFU, SLC1A5 / Fold change vs veh, SLC1A5 / RFU, SLMO2 / Fold change vs veh, SLMO2 / RFU, ABCC4 / Fold change vs veh, ABCC4 / RFU, LOC101060439 /// RAP1B / Fold change vs veh, LOC101060439 /// RAP1B / RFU, RFX7 / Fold change vs veh, RFX7 / RFU, GTPBP10 / Fold change vs veh, GTPBP10 / RFU, CNEP1R1 / Fold change vs veh, CNEP1R1 / RFU, BIVM-ERCC5 /// ERCC5 / Fold change vs veh, BIVM-ERCC5 /// ERCC5 / RFU, ILF3 / Fold change vs veh, ILF3 / RFU 11762660_at / Fold change /veh 11762660_at / RFU VCAN (11757783_s_at) / Fold change /veh VCAN (11757783_s_at) / RFU DDX43 (11728927_at) / Fold change /veh DDX43 (11728927_at) / RFU KRT8 (11758188_x_at) / Fold change /veh KRT8 (11758188_x_at) / RFU NKD1 (11759106_at) / Fold change /veh NKD1 (11759106_at) / RFU SRD5A1 (11742802_a_at) / Fold change /veh SRD5A1 (11742802_a_at) / RFU TPSAB1 /// TPSB2 (11721975_s_at) / Fold change /veh TPSAB1 /// TPSB2 (11721975_s_at) / RFU GSTM3 (11746129_a_at) / Fold change /veh GSTM3 (11746129_a_at) / RFU IL23R (11737362_x_at) / Fold change /veh IL23R (11737362_x_at) / RFU TMEM51 (11727254_a_at) / Fold change /veh TMEM51 (11727254_a_at) / RFU PIWIL2 (11732686_x_at) / Fold change /veh PIWIL2 (11732686_x_at) / RFU ORM1 (11744905_x_at) / Fold change /veh ORM1 (11744905_x_at) / RFU CCDC152 (11743942_at) / Fold change /veh CCDC152 (11743942_at) / RFU ECM1 (11717891_a_at) / Fold change /veh ECM1 (11717891_a_at) / RFU IL23R (11748794_a_at) / Fold change /veh IL23R (11748794_a_at) / RFU TNFAIP8L3 (11732012_x_at) / Fold change /veh TNFAIP8L3 (11732012_x_at) / RFU MBOAT4 (11741988_at) / Fold change /veh MBOAT4 (11741988_at) / RFU 11764193_at / Fold change /veh 11764193_at / RFU TMEM53 (11763286_at) / Fold change /veh TMEM53 (11763286_at) / RFU MAGEB2 (11727129_at) / Fold change /veh MAGEB2 (11727129_at) / RFU TMEM200A (11744735_a_at) / Fold change /veh TMEM200A (11744735_a_at) / RFU CCDC152 (11751479_a_at) / Fold change /veh CCDC152 (11751479_a_at) / RFU FAM211A (11726209_a_at) / Fold change /veh FAM211A (11726209_a_at) / RFU RGS16 (11746705_a_at) / Fold change /veh RGS16 (11746705_a_at) / RFU VCAN (11755009_s_at) / Fold change /veh VCAN (11755009_s_at) / RFU RHOB (11743442_s_at) / Fold change /veh RHOB (11743442_s_at) / RFU RGS16 (11720943_a_at) / Fold change /veh RGS16 (11720943_a_at) / RFU RGS16 (11720944_at) / Fold change /veh RGS16 (11720944_at) / RFU, VPS4B / Fold change vs veh, VPS4B / RFU, CREB1 / Fold change vs veh, CREB1 / RFU, DNAJC13 / Fold change vs veh, DNAJC13 / RFU, GNAQ / Fold change vs veh, GNAQ / RFU, CDK5R1 / Fold change vs veh, CDK5R1 / RFU, ZRANB3 / Fold change vs veh, ZRANB3 / RFU, CUL4A / Fold change vs veh, CUL4A / RFU, CCNY / Fold change vs veh, CCNY / RFU, UFL1 / Fold change vs veh, UFL1 / RFU, COG3 / Fold change vs veh, COG3 / RFU, DIAPH2 / Fold change vs veh, DIAPH2 / RFU, SKA2 / Fold change vs veh, SKA2 / RFU, AFF3 / Fold change vs veh, AFF3 / RFU, LMF1 / Fold change vs veh, LMF1 / RFU, IPO11 / Fold change vs veh, IPO11 / RFU, DFFB / Fold change vs veh, DFFB / RFU, FOXP1 / Fold change vs veh, FOXP1 / RFU, CARD8 / Fold change vs veh, CARD8 / RFU, STRN3 / Fold change vs veh, STRN3 / RFU, ADK / Fold change vs veh, ADK / RFU, RASSF2 / Fold change vs veh, RASSF2 / RFU, WIPF1 / Fold change vs veh, WIPF1 / RFU, LARP1B / Fold change vs veh, LARP1B / RFU, RASA1 / Fold change vs veh, RASA1 / RFU, RB1 / Fold change vs veh, RB1 / RFU, PPFIA1 / Fold change vs veh, PPFIA1 / RFU, MAT2A / Fold change vs veh, MAT2A / RFU, CCT5 / Fold change vs veh, CCT5 / RFU, WDR92 / Fold change vs veh, WDR92 / RFU, CUX1 / Fold change vs veh, CUX1 / RFU, TTC7A / Fold change vs veh, TTC7A / RFU, TMEM135 / Fold change vs veh, TMEM135 / RFU, DEPTOR / Fold change vs veh, DEPTOR / RFU, CPM / Fold change vs veh, CPM / RFU, DNAJB6 / Fold change vs veh, DNAJB6 / RFU, CACNA2D3 / Fold change vs veh, CACNA2D3 / RFU, DTX4 / Fold change vs veh, DTX4 / RFU, TFCP2 / Fold change vs veh, TFCP2 / RFU, GMCL1 /// GMCL1P1 / Fold change vs veh, GMCL1 /// GMCL1P1 / RFU, AEBP2 / Fold change vs veh, AEBP2 / RFU, SNHG1 /// SNORD22 /// SNORD25 /// SNORD26 /// SNORD27 /// SNORD28 /// SNORD29 /// SNORD31 / Fold change vs veh, SNHG1 /// SNORD22 /// SNORD25 /// SNORD26 /// SNORD27 /// SNORD28 /// SNORD29 /// SNORD31 / Fold change (Aza/veh), C12orf56 (ProbeSet 11735607_a_at) / Fold change (ACY-1035/veh), C12orf56 (ProbeSet 11735607_a_at) / Fold change (Aza/veh), FGFR1OP (ProbeSet 11751329_s_at) / Fold change (ACY-1035/veh), FGFR1OP (ProbeSet 11751329_s_at) / Fold change (Aza/veh), VPS36 (ProbeSet 11739960_a_at) / Fold change (ACY-1035/veh), VPS36 (ProbeSet 11739960_a_at) / RFU SYPL1 (11715823_x_at) / Fold change /veh SYPL1 (11715823_x_at) / RFU IGFBP7 (11715501_s_at) / Fold change /veh IGFBP7 (11715501_s_at) / RFU REEP3 (11722064_at) / Fold change /veh REEP3 (11722064_at) / RFU IGLL1 (11728026_x_at) / Fold change /veh IGLL1 (11728026_x_at): dose or concentration left out as unconfirmed. The note with it: ProbeSet 11719632_a_at; LIST B.

In the case of `Nc1ncn([C@@H]2O[C@H](CO)[C@@H](O)[C@H]2O)c(=O)n1` [azacitidine], the “Fold change vs veh, ABCC4” value was found to be 0.85.

The values are drawn from paper PMC5218480 (PLoS ONE, 2017).
